# From patent publication US11078202B2, “β-lactamase inhibitor and use thereof” (priority 2018, dated 2021)
# Where a name gives a salt, the structure may show the parent alone.
# What was measured:
# Assay type in all cases: cell-based
# [1] = system: Acinetobacter baumannii XNWB 0007; experiment: MIC assay of test compounds combined with ceftazidime (8 μg/mL); conditions: ceftazidime 8 μg/mL fixed
# Experimental: (§1) The bacterial strains used for the minimum inhibitory concentration (MIC) test were frozen in a −80° C. ULT freezer and thawed 2 days before use. A small amount of frozen bacterial strains were scraped using a sterile inoculating loop, streaked onto a TSA solid culture dish for inoculation, and then cultured for 20-24 h at 35±2° C. in a normal atmospheric environment. 5-10 colonies with similar morphology were picked from the culture dish using a sterile inoculating loop and then re-streaked onto a suitable solid culture dish. Then the dish was placed into a normal incubator for culture for 20-24 h at 35±2° C. 5-10 single bacterial colonies were picked from the solid culture dish, resuspended in 500 μL of 0.9% NaCl, and adjusted to an OD600 of 0.1-0.15 with a spectrophotometer. The bacteria were then diluted 300-fold with 1.1×CAMHB. […] Dilution of test compounds: […] 2 μL of each compound in the dilution master plate of the test compounds was transferred to the corresponding well of the assay plates. In the mean time, 2 μL of 100% DMSO was transferred to the compound-free wells (GC and SC wells). (1) 8 μL of imipenem in the additive plate of imipenem was transferred to the corresponding wells of the assay plates; (2) 8 μL of ceftazidime in the additive plate of ceftazidime was transferred to the corresponding wells of the assay plates; (3) 8 μL of ampicillin in the additive plate of ampicillin was transferred to the corresponding wells of the assay plates. 90 μL of corresponding bacterial inocula were added to wells (except for SC wells) of the assay plates. After addition, the 6 assay plates were covered by sterile covers. The mixtures in the assay plates were centrifuged by a centrifuge at 1000 rpm for 30 s, and mixed uniformly by oscillating with a microplate oscillator at 800 rpm for 1 min, and then cultured in a common incubator for 16-20 h at 35±2° C. The minimum inhibitory concentration of each compound was recorded by reference to guidelines from the Clinical and Laboratory Standards Institute. […] The effect of the test compounds in combination with imipenem, ceftazidime, and ampicillin was also tested. […] The bacterial inocula in the assay plates were resuscitated from TSA and diluted in CAMHB, while growth controls (GC wells) and sterile controls (SC wells) were set up in the assay plates. The minimum inhibitory concentration of each compound combination against different bacteria was observed and recorded after the assay plates were incubated in a common incubator at 35±2° C. for 16-20 h, and the results are shown in Tables 1-3.
# [2] = system: Klebsiella pneumoniae XNWB 0001; experiment: as above; conditions: ceftazidime 8 μg/mL fixed
# Experimental: as §1
# [3] = system: Klebsiella pneumoniae XNWB 0002; experiment: as above; conditions: ceftazidime 8 μg/mL fixed
# Experimental: as §1
# [4] = system: Klebsiella pneumoniae XNWB 0003; experiment: as above; conditions: ceftazidime 8 μg/mL fixed
# Experimental: as §1
# [5] = system: Klebsiella pneumoniae XNWB 0004; experiment: as above; conditions: ceftazidime 8 μg/mL fixed
# Experimental: as §1
# [6] = system: Klebsiella pneumoniae XNWB 0005; experiment: as above; conditions: ceftazidime 8 μg/mL fixed
# Experimental: as §1
# [7] = system: Klebsiella pneumoniae XNWB 0006; experiment: as above; conditions: ceftazidime 8 μg/mL fixed
# Experimental: as §1
# [8] = system: Pseudomonas aeruginosa XNWB 0008; experiment: as above; conditions: ceftazidime 8 μg/mL fixed
# Experimental: as §1
# [9] = system: Acinetobacter baumannii XNWB 0007; experiment: MIC assay of test compounds combined with imipenem (4 μg/mL); conditions: imipenem 4 μg/mL fixed
# Experimental: as §1
# [10] = system: Klebsiella pneumoniae XNWB 0001; experiment: as above; conditions: imipenem 4 μg/mL fixed
# Experimental: as §1
# [11] = system: Klebsiella pneumoniae XNWB 0002; experiment: as above; conditions: imipenem 4 μg/mL fixed
# Experimental: as §1
# [12] = system: Klebsiella pneumoniae XNWB 0003; experiment: as above; conditions: imipenem 4 μg/mL fixed
# Experimental: as §1
# [13] = system: Klebsiella pneumoniae XNWB 0004; experiment: as above; conditions: imipenem 4 μg/mL fixed
# Experimental: as §1
# [14] = system: Klebsiella pneumoniae XNWB 0005; experiment: as above; conditions: imipenem 4 μg/mL fixed
# Experimental: as §1
# [15] = system: Klebsiella pneumoniae XNWB 0006; experiment: as above; conditions: imipenem 4 μg/mL fixed
# Experimental: as §1
# [16] = system: Pseudomonas aeruginosa XNWB 0008; experiment: as above; conditions: imipenem 4 μg/mL fixed
# Experimental: as §1
Compound,The minimum concentration of test compounds combined with ceftazidime (8 μg/mL) for bacteriostasis [1],The minimum concentration of test compounds combined with ceftazidime (8 μg/mL) for bacteriostasis [2],The minimum concentration of test compounds combined with ceftazidime (8 μg/mL) for bacteriostasis [3],The minimum concentration of test compounds combined with ceftazidime (8 μg/mL) for bacteriostasis [4],The minimum concentration of test compounds combined with ceftazidime (8 μg/mL) for bacteriostasis [5],The minimum concentration of test compounds combined with ceftazidime (8 μg/mL) for bacteriostasis [6],The minimum concentration of test compounds combined with ceftazidime (8 μg/mL) for bacteriostasis [7],The minimum concentration of test compounds combined with ceftazidime (8 μg/mL) for bacteriostasis [8],The minimum concentration of test compounds combined with imipenem (4 μg/mL) for bacteriostasis [9],The minimum concentration of test compounds combined with imipenem (4 μg/mL) for bacteriostasis [10],The minimum concentration of test compounds combined with imipenem (4 μg/mL) for bacteriostasis [11],The minimum concentration of test compounds combined with imipenem (4 μg/mL) for bacteriostasis [12],The minimum concentration of test compounds combined with imipenem (4 μg/mL) for bacteriostasis [13],The minimum concentration of test compounds combined with imipenem (4 μg/mL) for bacteriostasis [14],The minimum concentration of test compounds combined with imipenem (4 μg/mL) for bacteriostasis [15],The minimum concentration of test compounds combined with imipenem (4 μg/mL) for bacteriostasis [16]
"N=C(N)NC[C@@H](O)c1cc([C@@H]2CC3(CC3)[C@@H]3CN2C(=O)N3OS(=O)(=O)O)no1 [Example 40, (1R,4S)-4-(5-((R)-2-guanidyl-1-hydroxyethyl)isoxazol-3-yl)-6-oxo-5,7-diazaspiro [bicyclo[3.2.1]octane-2,1′-cyclopropan]-7-yl sulfate]",C (C: 16-128 μg/mL),A (A: <8 μg/mL),A (A: <8 μg/mL),A (A: <8 μg/mL),A (A: <8 μg/mL),A (A: <8 μg/mL),A (A: <8 μg/mL),B (B: 8-16 μg/mL),C (C: 16-128 μg/mL),A (A: <8 μg/mL),A (A: <8 μg/mL),A (A: <8 μg/mL),A (A: <8 μg/mL),A (A: <8 μg/mL),A (A: <8 μg/mL),A (A: <8 μg/mL)
"NC[C@H](O)c1nnc([C@@H]2CC3(CC3)[C@@H]3CN2C(=O)N3OS(=O)(=O)O)o1 [Example 62, (1R,4S)-4-(5-((S)-2-amino-1-hydroxyethyl)-1,3,4-oxadiazol-2-yl)-6-oxo-5,7-diazaspiro[bicyclo[3.2.1]octane-2,1′-cyclopropane]-7-yl hydrogen sulfate]",–,–,–,–,–,–,–,–,A (A: <8 μg/mL),A (A: <8 μg/mL),A (A: <8 μg/mL),A (A: <8 μg/mL),A (A: <8 μg/mL),A (A: <8 μg/mL),A (A: <8 μg/mL),B (B: 8-16 μg/mL)
NC[C@@H](O)c1nnc([C@@H]2CC3(CC3)[C@@H]3CN2C(=O)N3OS(=O)(=O)O)o1 [Example 61],–,–,–,–,–,–,–,–,B (B: 8-16 μg/mL),A (A: <8 μg/mL),A (A: <8 μg/mL),A (A: <8 μg/mL),A (A: <8 μg/mL),A (A: <8 μg/mL),A (A: <8 μg/mL),B (B: 8-16 μg/mL)
